Assay results as given in publication PMC9391358, “Crystal structures reveal catalytic and regulatory mechanisms of the dual-specificity ubiquitin/FAT10 E1 enzyme Uba6” (Nature Communications, 2022).
Blank lines part the entries; values can stand above or below the compound they belong to.

Key:
Uba6 (Uba6_Apo; Uba6_WT) [1] = molecular target: T1, Uba6 (Uba6_Apo; Uba6_WT) (Homo sapiens, UniProt A0AVT1); experiment: binding test, method not given
T1 construct: residues 37-1052; crystal from insect cells, His tag cleaved by TEV, C625A
T1 sequence (A0AVT1 37-1052): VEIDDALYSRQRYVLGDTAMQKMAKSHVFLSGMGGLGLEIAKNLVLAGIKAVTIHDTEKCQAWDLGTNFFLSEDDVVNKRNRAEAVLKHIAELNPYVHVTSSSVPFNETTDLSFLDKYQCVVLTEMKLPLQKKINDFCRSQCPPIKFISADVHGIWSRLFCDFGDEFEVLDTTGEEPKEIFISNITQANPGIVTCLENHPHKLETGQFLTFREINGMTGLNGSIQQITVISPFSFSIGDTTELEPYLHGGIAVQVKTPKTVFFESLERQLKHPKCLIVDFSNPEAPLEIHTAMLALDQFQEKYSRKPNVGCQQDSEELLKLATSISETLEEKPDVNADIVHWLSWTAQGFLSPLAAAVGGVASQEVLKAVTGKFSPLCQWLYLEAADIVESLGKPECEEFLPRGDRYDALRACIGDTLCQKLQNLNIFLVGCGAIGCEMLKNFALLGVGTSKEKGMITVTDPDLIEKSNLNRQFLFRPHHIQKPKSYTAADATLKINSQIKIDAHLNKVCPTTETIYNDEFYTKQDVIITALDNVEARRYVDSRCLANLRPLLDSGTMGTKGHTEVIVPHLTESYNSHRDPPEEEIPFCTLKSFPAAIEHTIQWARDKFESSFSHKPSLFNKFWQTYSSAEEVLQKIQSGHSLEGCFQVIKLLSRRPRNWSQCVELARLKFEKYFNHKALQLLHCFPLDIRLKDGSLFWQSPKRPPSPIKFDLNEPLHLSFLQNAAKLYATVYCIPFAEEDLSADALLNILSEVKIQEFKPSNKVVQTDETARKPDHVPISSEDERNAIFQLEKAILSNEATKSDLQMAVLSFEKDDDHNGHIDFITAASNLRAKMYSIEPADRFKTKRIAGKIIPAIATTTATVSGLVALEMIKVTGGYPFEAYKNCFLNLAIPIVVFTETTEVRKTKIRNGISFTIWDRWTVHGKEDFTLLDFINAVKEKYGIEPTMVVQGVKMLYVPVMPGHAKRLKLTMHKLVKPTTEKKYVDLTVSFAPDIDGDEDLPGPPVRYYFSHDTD

Uba6 SCCH domain = molecular target: T2, Uba6 SCCH domain (Homo sapiens, UniProt A0AVT1); experiment: thermal shift assay (SYPRO Orange); type: binding; settings: ~43 °C without ligand, 20 mM HEPES pH 7.5, 150 mM NaCl, 0.25 mM TCEP, E. coli-derived
T2 construct: standalone SCCH domain, residues 615-892, E. coli, SMT3 tag cleaved by ULP1
T2 sequence (A0AVT1 615-892): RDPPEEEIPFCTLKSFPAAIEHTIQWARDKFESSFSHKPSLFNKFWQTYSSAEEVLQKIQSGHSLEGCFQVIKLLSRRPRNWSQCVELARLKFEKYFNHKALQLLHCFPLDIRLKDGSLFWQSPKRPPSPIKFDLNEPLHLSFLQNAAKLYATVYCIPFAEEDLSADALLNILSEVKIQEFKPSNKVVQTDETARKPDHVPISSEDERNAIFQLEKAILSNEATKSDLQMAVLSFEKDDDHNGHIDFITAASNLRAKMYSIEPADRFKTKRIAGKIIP

Uba6 (Uba6_Apo; Uba6_WT) [2] = molecular target: T1, Uba6 (Uba6_Apo; Uba6_WT); experiment: isothermal titration calorimetry; type: binding
Uba1 (Uba1_WT) = molecular target: T3, Uba1 (Uba1_WT) (Homo sapiens, UniProt P22314); experiment: gel-based Uba1~Ub thioester formation, […] s; type: biochemical; settings: ubiquitin 2.5 μM, 0-50 μM InsP6, 100 nM E1, 500 μM ATP, 5 mM MgCl2, pH 7.4, RT
T3 construct: E. coli-produced Uba1; a Uba1 SCCH domain (625-892) was also made and may be the ITC sample
T3 sequence (P22314 2-1058): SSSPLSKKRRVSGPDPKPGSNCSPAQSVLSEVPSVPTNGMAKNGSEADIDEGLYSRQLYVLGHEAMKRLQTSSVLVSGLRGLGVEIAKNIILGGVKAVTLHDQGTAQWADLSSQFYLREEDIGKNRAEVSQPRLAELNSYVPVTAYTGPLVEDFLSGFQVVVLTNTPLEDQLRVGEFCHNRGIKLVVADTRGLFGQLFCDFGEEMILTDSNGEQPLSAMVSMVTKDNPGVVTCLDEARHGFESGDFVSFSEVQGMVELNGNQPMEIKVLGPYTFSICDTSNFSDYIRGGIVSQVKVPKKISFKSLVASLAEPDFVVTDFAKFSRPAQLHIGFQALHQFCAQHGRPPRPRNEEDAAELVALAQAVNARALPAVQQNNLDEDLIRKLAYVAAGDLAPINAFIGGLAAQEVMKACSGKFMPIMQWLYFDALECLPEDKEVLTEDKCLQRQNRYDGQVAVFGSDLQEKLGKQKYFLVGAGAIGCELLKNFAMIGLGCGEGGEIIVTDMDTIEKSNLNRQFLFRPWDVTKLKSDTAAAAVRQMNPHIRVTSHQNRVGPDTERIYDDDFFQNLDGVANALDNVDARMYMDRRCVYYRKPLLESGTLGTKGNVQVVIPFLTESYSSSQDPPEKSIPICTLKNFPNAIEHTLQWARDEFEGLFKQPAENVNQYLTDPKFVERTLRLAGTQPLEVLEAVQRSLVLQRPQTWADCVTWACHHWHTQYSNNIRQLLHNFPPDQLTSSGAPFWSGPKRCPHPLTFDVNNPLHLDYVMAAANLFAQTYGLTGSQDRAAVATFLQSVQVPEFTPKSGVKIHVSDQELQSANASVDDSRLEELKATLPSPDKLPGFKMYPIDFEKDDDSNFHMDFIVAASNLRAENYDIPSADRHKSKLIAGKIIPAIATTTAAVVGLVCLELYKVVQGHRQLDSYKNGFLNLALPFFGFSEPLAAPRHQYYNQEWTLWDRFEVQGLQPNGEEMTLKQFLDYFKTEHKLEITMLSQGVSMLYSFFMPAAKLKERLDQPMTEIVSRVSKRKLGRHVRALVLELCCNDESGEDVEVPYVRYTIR

SMILES: O[C@H]1[C@H](O)[C@@H](O)[C@H](O)[C@@H](O)[C@H]1O [myo-inositol]
binding test, method not given (Uba6 (Uba6_Apo; Uba6_WT) [1]): myo-inositol (which lacks phosphates) fails to bind with Uba6 with detectable affinity

melting temperature (Uba6 SCCH domain; 100 μM InsP5): 54 °C
Kd (Uba6 (Uba6_Apo; Uba6_WT) [2]): 73 nM
SMILES: O=P(O)(O)O[C@@H]1[C@@H](OP(=O)(O)O)[C@H](OP(=O)(O)O)[C@H](O)[C@H](OP(=O)(O)O)[C@H]1OP(=O)(O)O [InsP5, D-myo-Inositol 1,3,4,5,6-pentakisphosphate]

melting temperature (Uba6 SCCH domain; 100 μM InsP3): 47 °C
Kd (Uba6 (Uba6_Apo; Uba6_WT) [2]): 248 nM
SMILES: O=P(O)(O)O[C@@H]1[C@H](O)[C@H](O)[C@@H](OP(=O)(O)O)[C@H](OP(=O)(O)O)[C@H]1O [InsP3, D-myo-Inositol 1,4,5-trisphosphate]

SMILES: O=P(O)(O)O[C@H]1[C@H](OP(=O)(O)O)[C@@H](OP(=O)(O)O)[C@H](OP(=O)(O)O)[C@@H](OP(=O)(O)O)[C@H]1OP(=O)(O)O [InsP6]
IC50 (Uba1 (Uba1_WT)): InsP6 failed to inhibit Uba1 activation of Ub
